Active and inactive are the calls of the source. No rule for the calls is given here.

This series relates to rodent lifetime carcinogenesis bioassay, tumor incidence TD50. The series is described as follows: chronic cancer bioassays in animals – CPDB, compiled studies (AID 1745844).
Setting [1] is: mouse, strain B6C3F1, males, by gavage, site: any site (literature study), lesion: several types, types named in the paper, dosed 104 weeks, study length 104 weeks.
Where [2] appears, read: mouse, strain B6C3F1, males, by gavage, site: lung, lesion: alveolar/bronchiolar adenoma + alveolar/bronchiolar carcinoma, dosed 104 weeks, study length 104 weeks.

For orientation: TD50 means the dose at which the toxic effect under study appears in half of the subjects. Take `Clc1cc2c(cc1Cl)Oc1cc(Cl)c(Cl)cc1O2`: the TD50 by setting is: (mouse, strain B6C3F1, females, by gavage, site: all sites, lesion: leukemia + lymphoma, dosed 104 weeks, study length 104 weeks) 0.000709 mg/kg/day; (mouse, strain B6C3F1, females, by gavage, site: all sites, lesion: lymphoma, histiocytic type, dosed 104 weeks, study length 104 weeks) 0.000705 mg/kg/day; (mouse, strain B6C3F1, females, by gavage, site: all sites, lesion: lymphoma, dosed 104 weeks, study length 104 weeks) 0.000682 mg/kg/day; (mouse, strain B6C3F1, females, by gavage, site: any site (literature study), lesion: several types, types named in the paper, dosed 104 weeks, study length 104 weeks) 0.000494 mg/kg/day; (mouse, strain B6C3F1, females, by gavage, site: liver + thyroid gland, lesion: hepatocellular adenoma + hepatocellular carcinoma + follicular-cell adenoma, dosed 104 weeks, study length 104 weeks) 0.000526 mg/kg/day; (mouse, strain B6C3F1, females, by gavage, site: liver, lesion: hepatocellular adenoma + hepatocellular carcinoma + neoplastic nodule, dosed 104 weeks, study length 104 weeks) 0.000756 mg/kg/day. For the same molecule, the TD50 (mouse, strain B6C3F1, females, by gavage, site: liver, lesion: hepatocellular adenoma + hepatocellular carcinoma, dosed 104 weeks, study length 104 weeks) was 0.000756 mg/kg/day; the TD50 (mouse, strain B6C3F1, females, by gavage, site: liver, lesion: hepatocellular carcinoma, dosed 104 weeks, study length 104 weeks) was 0.0013 mg/kg/day; the TD50 (mouse, strain B6C3F1, females, by gavage, site: subcutaneous tissue, lesion: fibrosarcoma, dosed 104 weeks, study length 104 weeks) was 0.00172 mg/kg/day; the TD50 (mouse, strain B6C3F1, females, by gavage, site: thyroid gland, lesion: follicular-cell adenoma, dosed 104 weeks, study length 104 weeks) is 0.00159 mg/kg/day; the TD50 under setting [1] was 0.000141 mg/kg/day; the TD50 (mouse, strain B6C3F1, males, by gavage, site: liver, lesion: hepatocellular adenoma + hepatocellular carcinoma + neoplastic nodule, dosed 104 weeks, study length 104 weeks) was determined as 8.68e-05 mg/kg/day. Further, the TD50 by setting is: (mouse, strain B6C3F1, males, by gavage, site: liver, lesion: hepatocellular adenoma + hepatocellular carcinoma, dosed 104 weeks, study length 104 weeks) 8.68e-05 mg/kg/day; (mouse, strain B6C3F1, males, by gavage, site: liver, lesion: hepatocellular adenoma, dosed 104 weeks, study length 104 weeks) 0.000271 mg/kg/day; (mouse, strain B6C3F1, males, by gavage, site: liver, lesion: hepatocellular carcinoma, dosed 104 weeks, study length 104 weeks) 0.000147 mg/kg/day; under setting [2], 0.000198 mg/kg/day; (mouse, strain B6C3F1, males, by gavage, site: lung, lesion: alveolar/bronchiolar adenoma, dosed 104 weeks, study length 104 weeks) 0.000219 mg/kg/day; (rat, strain Osborne-Mendel, females, by gavage, site: any site (literature study), lesion: several types, types named in the paper, dosed 104 weeks, study length 105 weeks) 0.00158 mg/kg/day. For the same molecule, the TD50 was 0.000127 mg/kg/day (rat, strain Osborne-Mendel, females, by gavage, site: liver, lesion: hepatocellular adenoma + hepatocellular carcinoma + neoplastic nodule, dosed 104 weeks, study length 105 weeks); 0.000127 mg/kg/day (rat, strain Osborne-Mendel, females, by gavage, site: liver, lesion: hepatocellular carcinoma + neoplastic nodule, dosed 104 weeks, study length 105 weeks); 0.000154 mg/kg/day (rat, strain Osborne-Mendel, females, by gavage, site: liver, lesion: neoplastic nodule, dosed 104 weeks, study length 105 weeks); 1.21e-05 mg/kg/day (rat, strain Osborne-Mendel, males, by gavage, site: adrenal gland, lesion: cortical adenoma, dosed 104 weeks, study length 105 weeks); 0.000133 mg/kg/day (rat, strain Osborne-Mendel, males, by gavage, site: any site (literature study), lesion: several types, types named in the paper, dosed 104 weeks, study length 105 weeks); 0.000391 mg/kg/day (rat, strain Osborne-Mendel, males, by gavage, site: liver, lesion: hepatocellular adenoma + hepatocellular carcinoma + neoplastic nodule, dosed 104 weeks, study length 105 weeks). Besides, the TD50 was 0.000391 mg/kg/day (rat, strain Osborne-Mendel, males, by gavage, site: liver, lesion: hepatocellular carcinoma + neoplastic nodule, dosed 104 weeks, study length 105 weeks); 0.000391 mg/kg/day (rat, strain Osborne-Mendel, males, by gavage, site: liver, lesion: neoplastic nodule, dosed 104 weeks, study length 105 weeks); 0.000169 mg/kg/day (rat, strain Osborne-Mendel, males, by gavage, site: subcutaneous tissue, lesion: fibroma, dosed 104 weeks, study length 105 weeks); 0.000101 mg/kg/day (rat, strain Osborne-Mendel, males, by gavage, site: thyroid gland, lesion: follicular-cell adenoma + follicular-cell carcinoma, dosed 104 weeks, study length 105 weeks); 0.000113 mg/kg/day (rat, strain Osborne-Mendel, males, by gavage, site: thyroid gland, lesion: follicular-cell adenoma, dosed 104 weeks, study length 105 weeks); 0.000205 mg/kg/day (rat, strain Sprague-Dawley Spartan, females, in feed, site: hard palate/nasal turbinates, lesion: squamous-cell carcinoma, stratified, dosed 103 weeks, study length 103 weeks). Also, the TD50 was 6.51e-05 mg/kg/day (rat, strain Sprague-Dawley Spartan, females, in feed, site: liver, lesion: hepatocellular carcinoma, dosed 103 weeks, study length 103 weeks); 6.67e-06 mg/kg/day (rat, strain Sprague-Dawley Spartan, females, in feed, site: liver, lesion: hepatocellular hyperplastic nodule, dosed 103 weeks, study length 103 weeks); 1.49e-05 mg/kg/day (rat, strain Sprague-Dawley Spartan, females, in feed, site: liver, lesion: several types, types named in the paper, dosed 103 weeks, study length 103 weeks); 0.000192 mg/kg/day (rat, strain Sprague-Dawley Spartan, females, in feed, site: lung, lesion: squamous-cell carcinoma, keratinized, dosed 103 weeks, study length 103 weeks); 0.000217 mg/kg/day (rat, strain Sprague-Dawley Spartan, males, in feed, site: adrenal gland, lesion: cortical adenoma, dosed 103 weeks, study length 103 weeks); 0.000393 mg/kg/day (rat, strain Sprague-Dawley Spartan, males, in feed, site: hard palate/nasal turbinates, lesion: squamous-cell carcinoma, stratified, dosed 103 weeks, study length 103 weeks). Besides, the TD50 (rat, strain Sprague-Dawley Spartan, males, in feed, site: tongue, lesion: squamous-cell carcinoma, stratified, dosed 103 weeks, study length 103 weeks) was 0.000628 mg/kg/day; the TD50 (rat, strain Sprague-Dawley, males, in feed, site: liver, lesion: several types, types named in the paper, dosed 78 weeks, study length 95 weeks) came to 8.31e-05 mg/kg/day; the TD50 (rat, strain Sprague-Dawley, males, in feed, site: lung, lesion: squamous-cell tumor, dosed 78 weeks, study length 95 weeks) was 7.96e-05 mg/kg/day. The carcinogen call runs as follows: (mouse, strain Swiss/H/Riop, males, by gavage, site: liver, lesion: several types, types named in the paper, dosed 52 weeks, study length 104 weeks) “positive”; (mouse, strain Swiss/H/Riop, males, by gavage, site: lung, lesion: one or several types, types not named, dosed 52 weeks, study length 104 weeks) “negative (inactive)”.

`Nc1ccc2c(c1)oc1ccccc12`: the TD50 is, setting by setting: (rat, strain Wistar, males, in feed, site: any site (literature study), lesion: benign tumor, dosed 89 weeks, study length 89 weeks) 1.57 mg/kg/day; (rat, strain Wistar, males, in feed, site: any site (literature study), lesion: malignant tumor, dosed 89 weeks, study length 89 weeks) 2.48 mg/kg/day; (rat, strain Wistar, males, in feed, site: liver, lesion: hepatoma, dosed 89 weeks, study length 89 weeks) 9.44 mg/kg/day.

For the molecule `CNC(=O)ON=CC(C)(C)SC`, the carcinogen call reads like this: (mouse, strain B6C3F1, females, in feed, site: any site (literature study), lesion: several types, types named in the paper, dosed 103 weeks, study length 103 weeks) “negative (inactive)”; (rat, strain Fischer 344, females, in feed, site: any site (literature study), lesion: several types, types named in the paper, dosed 103 weeks, study length 105 weeks) “negative (inactive)”. In addition, the TD50 is, setting by setting: (mouse, strain B6C3F1, females, in feed, site: liver, lesion: hepatocellular adenoma + hepatocellular carcinoma + neoplastic nodule, dosed 103 weeks, study length 103 weeks) 52.7 mg/kg/day; (mouse, strain B6C3F1, males, in feed, site: any site (literature study), lesion: several types, types named in the paper, dosed 103 weeks, study length 103 weeks) 1.74 mg/kg/day (inactive); (mouse, strain B6C3F1, males, in feed, site: liver, lesion: hepatocellular adenoma + hepatocellular carcinoma + neoplastic nodule, dosed 103 weeks, study length 103 weeks) 2.83 mg/kg/day; (mouse, strain B6C3F1, males, in feed, site: lung, lesion: alveolar/bronchiolar adenoma + alveolar/bronchiolar carcinoma, dosed 103 weeks, study length 103 weeks) 14.8 mg/kg/day; (rat, strain Fischer 344, males, in feed, site: any site (literature study), lesion: several types, types named in the paper, dosed 103 weeks, study length 105 weeks) 10.4 mg/kg/day (inactive); (rat, strain Fischer 344, males, in feed, site: liver, lesion: hepatocellular adenoma + hepatocellular carcinoma + neoplastic nodule, dosed 103 weeks, study length 105 weeks) 1.33 mg/kg/day.

Regarding `C/C=C/C=C/C=O`, the TD50 was 129 mg/kg/day (mouse, strain B6C3F1, females, by gavage, site: forestomach, lesion: squamous-cell carcinoma + squamous-cell papilloma, dosed 104 weeks, study length 104 weeks); 580 mg/kg/day (mouse, strain B6C3F1, females, by gavage, site: forestomach, lesion: squamous-cell carcinoma, dosed 104 weeks, study length 104 weeks); 165 mg/kg/day (mouse, strain B6C3F1, females, by gavage, site: forestomach, lesion: squamous-cell papilloma, dosed 104 weeks, study length 104 weeks); 218 mg/kg/day (mouse, strain B6C3F1, females, by gavage, site: skin, lesion: fibrosarcoma + fibrous histiocytoma, dosed 104 weeks, study length 104 weeks); 279 mg/kg/day under setting [1]; 279 mg/kg/day (mouse, strain B6C3F1, males, by gavage, site: forestomach, lesion: squamous-cell carcinoma + squamous-cell papilloma, dosed 104 weeks, study length 104 weeks). Also, the TD50 is 354 mg/kg/day (mouse, strain B6C3F1, males, by gavage, site: forestomach, lesion: squamous-cell papilloma, dosed 104 weeks, study length 104 weeks); 211 mg/kg/day (mouse, strain B6C3F1, males, by gavage, site: liver, lesion: hepatocellular adenoma + hepatoblastoma + hepatocellular carcinoma, dosed 104 weeks, study length 104 weeks); 1980 mg/kg/day under setting [2]; 2080 mg/kg/day (mouse, strain B6C3F1, males, by gavage, site: tongue, lesion: squamous-cell carcinoma, dosed 104 weeks, study length 104 weeks); 112 mg/kg/day (rat, strain Fischer 344, females, by gavage, site: any site (literature study), lesion: several types, types named in the paper, dosed 104 weeks, study length 104 weeks); 102 mg/kg/day (rat, strain Fischer 344, females, by gavage, site: forestomach, lesion: squamous-cell papilloma, dosed 104 weeks, study length 104 weeks). In addition, the TD50 (rat, strain Fischer 344, males, by gavage, site: adrenal medulla, lesion: pheochromocytoma, malignant, dosed 104 weeks, study length 104 weeks) is 415 mg/kg/day; the TD50 (rat, strain Fischer 344, males, by gavage, site: any site (literature study), lesion: several types, types named in the paper, dosed 104 weeks, study length 104 weeks) came to 107 mg/kg/day; the TD50 (rat, strain Fischer 344, males, by gavage, site: forestomach, lesion: squamous-cell carcinoma + squamous-cell papilloma, dosed 104 weeks, study length 104 weeks) is 44.7 mg/kg/day; the TD50 (rat, strain Fischer 344, males, by gavage, site: forestomach, lesion: squamous-cell papilloma, dosed 104 weeks, study length 104 weeks) was determined as 46.1 mg/kg/day.

For `O=C(OC[C@@H]1O[C@H](OC(=O)c2cc(O)c(O)c(OC(=O)c3cc(O)c(O)c(O)c3)c2)[C@@H](OC(=O)c2cc(O)c(O)c(OC(=O)c3cc(O)c(O)c(O)c3)c2)[C@H](OC(=O)c2cc(O)c(O)c(OC(=O)c3cc(O)c(O)c(O)c3)c2)[C@H]1OC(=O)c1cc(O)c(O)c(OC(=O)c2cc(O)c(O)c(O)c2)c1)c1cc(O)c(O)c(OC(=O)c2cc(O)c(O)c(O)c2)c1`, the TD50 by setting is: (rat, strain F344/DuCrj, females, in drinking water, site: any site (literature study), lesion: several types, types named in the paper, dosed 104 weeks, study length 114 weeks) 620 mg/kg/day (inactive); (rat, strain F344/DuCrj, females, in drinking water, site: liver, lesion: hepatocellular adenoma, dosed 104 weeks, study length 114 weeks) 16000 mg/kg/day (inactive). In addition, the carcinogen call (rat, strain F344/DuCrj, males, in drinking water, site: any site (literature study), lesion: several types, types named in the paper, dosed 104 weeks, study length 114 weeks) is “negative (inactive)” and the carcinogen call (rat, strain F344/DuCrj, males, in drinking water, site: liver, lesion: hepatocellular adenoma, dosed 104 weeks, study length 114 weeks) is “negative (inactive)”.
